{
  "source": "patent US9216977B2",
  "about": "(The University of North Carolina at Chapel Hill, priority 2009, dated 2015)",
  "key": {"KBvin": {"test_system": "KBvin", "test": "in vitro screen against KBvin cell line, GI50", "assay_type": "cell-based"}, "A549": {"test_system": "A549", "test": "in vitro screen against human tumor cell line A549 (lung), GI50", "assay_type": "cell-based"}, "DU145": {"test_system": "DU145", "test": "in vitro screen against human tumor cell line DU-145 (prostate), GI50", "assay_type": "cell-based"}, "KB": {"test_system": "KB", "test": "in vitro screen against human tumor cell line KB (nasopharyngeal), GI50", "assay_type": "cell-based", "conditions": "read-out: GI50 KB"}, "HCT-8": {"test_system": "HCT-8", "test": "in vitro screen against human tumor cell line HCT-8 (colon), GI50", "assay_type": "cell-based"}, "[1]": {"test_system": "panel of cancer cell lines including A549 (lung), DU-145 (prostate), KB (nasopharyngeal), and HCT-8 (colon)"}, "[2]": {"conditions": "Homo sapiens, A549, Example 2, Table 2, 12-aza-antofines, read-out: GI50 A549"}, "[3]": {"conditions": "Homo sapiens, DU-145, Example 2, Table 2, 12-aza-antofines, read-out: GI50 DU145"}, "[4]": {"conditions": "Homo sapiens, KB, Example 2, Table 2, 12-aza-antofines"}, "[5]": {"conditions": "Homo sapiens, Table 3, cells marked (KBvin) in the HCT-8 column"}, "[6]": {"conditions": "Homo sapiens, A549, Example 2, Table 3, 13-aza-cryptopleurines, read-out: GI50 A549"}, "[7]": {"conditions": "Homo sapiens, DU-145, Example 2, Table 3, 13-aza-cryptopleurines, read-out: GI50 DU145"}, "[8]": {"conditions": "Homo sapiens, KB, Example 2, Table 3, 13-aza-cryptopleurines"}, "[9]": {"conditions": "Homo sapiens, HCT-8, Example 2, Table 2, 12-aza-antofines, read-out: GI50 HCT-8"}, "[10]": {"conditions": "Homo sapiens, HCT-8, Example 2, Table 3, 13-aza-cryptopleurines, read-out: GI50 HCT-8"}},
  "note": "Where two headings read alike, the source gives them in different places.",
  "data": [
    {"smiles": "COc1ccc2c3c(c4cc(OC)c(OC)cc4c2c1)C[C@H]1CN(CC(C)C)CN1C3", "values": [
      {"measurement": "melting point", "value": "93 to 95", "unit": "°C"}
    ]},
    {"smiles": "COc1ccc2c3c(c4cc(OC)c(OC)cc4c2c1)CC1CN(Cc2ccccc2)CN1C3", "note": "(stereo in doubt) [Compound 3j, (R)-12-aza-12N-benzyl-antofine]", "values": [
      {"measurement": "melting point", "value": "95 to 97", "unit": "°C"},
      {"measurement": "GI50", "setting": "KBvin; Homo sapiens, Table 2, cells marked (KBvin) in the HCT-8 column", "value": 1.87, "unit": "µM"},
      {"measurement": "GI50", "setting": "A549; [2]", "value": 2.68, "unit": "µM"},
      {"measurement": "GI50", "setting": "DU145; [3]", "value": 4.62, "unit": "µM"},
      {"measurement": "GI50", "setting": "KB; [4]", "value": 3.41, "unit": "µM"}
    ]},
    {"smiles": "COc1ccc2c3c(c4cc(OC)c(OC)cc4c2c1)CC1CN(CC(C)C)CCN1C3", "note": "(stereo in doubt) [Compound 8m, (R)-13-aza-13N-isobutyl-cryptopleurine]", "values": [
      {"measurement": "melting point", "value": "175 to 177", "unit": "°C"},
      {"measurement": "GI50", "setting": "KBvin; [5]", "value": 9.96, "unit": "µM"},
      {"measurement": "GI50", "setting": "A549; [6]", "value": 12.9, "unit": "µM"},
      {"measurement": "GI50", "setting": "DU145; [7]", "value": 12.2, "unit": "µM"},
      {"measurement": "GI50", "setting": "KB; [8]", "value": 11.2, "unit": "µM"}
    ]},
    {"smiles": "COc1ccc2c3c(c4cc(OC)c(OC)cc4c2c1)CC1CN(Cc2ccccc2)CCN1C3", "note": "(stereo in doubt) [Compound 8n, (R)-13-aza-13N-benzyl-cryptopleurine]", "values": [
      {"measurement": "melting point", "value": "86 to 88", "unit": "°C"},
      {"measurement": "GI50", "setting": "KBvin; [5]", "value": 7.64, "unit": "µM"},
      {"measurement": "GI50", "setting": "A549; [6]", "value": 16.4, "unit": "µM"},
      {"measurement": "GI50", "setting": "DU145; [7]", "value": 11.9, "unit": "µM"},
      {"measurement": "GI50", "setting": "KB; [8]", "value": 12.1, "unit": "µM"}
    ]},
    {"smiles": "COc1ccc2c3c(c4cc(OC)c(OC)cc4c2c1)CC1CCN(CC(C)C)CN1C3", "note": "(stereo in doubt) [Compound 11g, (R)-12-aza-12N-isobutyl-cryptopleurine]", "values": [
      {"measurement": "melting point", "value": "175 to 177", "unit": "°C"},
      {"measurement": "GI50", "setting": "KBvin; Homo sapiens, Table 4, cell marked (KBvin) in the HCT-8 column", "value": 7.32, "unit": "µM"},
      {"measurement": "GI50", "setting": "A549; Example 2, Table 4, 12-aza-cryptopleurines, read-out: GI50 A549", "value": 5.11, "unit": "µM"},
      {"measurement": "GI50", "setting": "DU145; Example 2, Table 4, 12-aza-cryptopleurines, read-out: GI50 DU145", "value": 1.66, "unit": "µM"},
      {"measurement": "GI50", "setting": "KB; Example 2, Table 4, 12-aza-cryptopleurines", "value": 1.45, "unit": "µM"}
    ]},
    {"smiles": "COc1ccc2c3c(c4cc(OC)c(OC)cc4c2c1)C[C@H]1CN(Cc2ccccc2)CN1C3", "note": "[3a]", "values": [
      {"measurement": "melting point", "value": "113 to 115", "unit": "°C"}
    ]},
    {"smiles": "CCCN1C[C@@H]2Cc3c(c4ccc(OC)cc4c4cc(OC)c(OC)cc34)CN2C1", "note": "[Compound 3c, (S)-12-aza-12N-propyl-antofine]", "values": [
      {"measurement": "melting point", "value": "155 to 157", "unit": "°C"},
      {"measurement": "GI50", "setting": "HCT-8; [9]", "value": 2.71, "unit": "µM"},
      {"measurement": "GI50", "setting": "A549; [2]", "value": 3.94, "unit": "µM"},
      {"measurement": "GI50", "setting": "DU145; [3]", "value": 7.38, "unit": "µM"},
      {"measurement": "GI50", "setting": "KB; [4]", "value": 6.64, "unit": "µM"}
    ]},
    {"smiles": "COc1ccc2c3c(c4cc(OC)c(OC)cc4c2c1)C[C@H]1CN(CCc2ccccc2)CN1C3", "note": "[Compound 3d, (S)-12-aza-12N-phenylethylenyl-antofine]", "values": [
      {"measurement": "melting point", "value": "85 to 87", "unit": "°C"},
      {"measurement": "GI50", "setting": "HCT-8; Homo sapiens, HCT-8, read-out: GI50 HCT-8", "value": 7.47, "unit": "µM"},
      {"measurement": "GI50", "setting": "A549; Homo sapiens, A549, read-out: GI50 A549", "value": 6.62, "unit": "µM"},
      {"measurement": "GI50", "setting": "DU145; Homo sapiens, DU-145, read-out: GI50 DU145", "value": 10.2, "unit": "µM"},
      {"measurement": "GI50", "setting": "KB; Homo sapiens, KB", "value": 10, "unit": "µM"}
    ]},
    {"smiles": "COc1ccc2c3c(c4cc(OC)c(OC)cc4c2c1)C[C@H]1CN(CCO)CN1C3", "note": "[Compound 3e, (S)-12-aza-12N-hydroxylethyl-antofine]", "values": [
      {"measurement": "melting point", "value": "210 to 212", "unit": "°C"},
      {"measurement": "GI50", "setting": "HCT-8; [9]", "value": 10.8, "unit": "µM"},
      {"measurement": "GI50", "setting": "A549; [2]", "value": 4.41, "unit": "µM"},
      {"measurement": "GI50", "setting": "DU145; [3]", "value": 6.36, "unit": "µM"},
      {"measurement": "GI50", "setting": "KB; [4]", "value": 7.83, "unit": "µM"}
    ]},
    {"smiles": "COc1ccc2c3c(c4cc(OC)c(OC)cc4c2c1)C[C@H]1CN(C2CC2)CN1C3", "note": "[Compound 3g, (S)-12-aza-12N-cyclopropyl-antofine]", "values": [
      {"measurement": "melting point", "value": "204 to 206", "unit": "°C"},
      {"measurement": "GI50", "setting": "HCT-8; [9]", "value": 1.85, "unit": "µM"},
      {"measurement": "GI50", "setting": "A549; [2]", "value": 1.8, "unit": "µM"},
      {"measurement": "GI50", "setting": "DU145; [3]", "value": 3.7, "unit": "µM"},
      {"measurement": "GI50", "setting": "KB; [4]", "value": 2.71, "unit": "µM"}
    ]},
    {"smiles": "COC1=C[C@@H]2Cc3c(c4ccc(OC)cc4c4cc(OC)c(OC)cc34)CN2C1", "note": "[Compound 7, (S)-12-methoxy-antofine-12-ene]", "values": [
      {"measurement": "GI50", "setting": "HCT-8; read-out: GI50 HCT-8", "value": 3.56, "unit": "µM"},
      {"measurement": "GI50", "setting": "KBvin", "value": 2.64, "unit": "µM"},
      {"measurement": "GI50", "setting": "A549; read-out: GI50 A549", "value": 5.97, "unit": "µM"},
      {"measurement": "GI50", "setting": "DU145; read-out: GI50 DU145", "value": 10.3, "unit": "µM"},
      {"measurement": "GI50", "setting": "KB", "value": 12.00, "unit": "µM"}
    ]},
    {"smiles": "COc1ccc2c3c(c4cc(OC)c(OC)cc4c2c1)C[C@H]1CC(=O)CN1C3", "note": "[Compound 8, (S)-12-oxo-antofine]", "values": [
      {"measurement": "range of cytotoxicity / anticancer activity in words", "setting": "[1]", "value": "middle nM to low μM range"},
      {"measurement": "GI50", "setting": "KBvin; Homo sapiens, KBVIN, Example 3, Table 1", "value": 0.43, "unit": "µM"},
      {"measurement": "GI50", "setting": "A549; Homo sapiens, A549, Example 3, Table 1, read-out: GI50 A549", "value": 0.29, "unit": "µM"},
      {"measurement": "GI50", "setting": "DU145; Homo sapiens, DU-145, Example 3, Table 1, read-out: GI50 DU145", "value": 0.71, "unit": "µM"},
      {"measurement": "GI50", "setting": "KB; Homo sapiens, KB, Example 3, Table 1", "value": 0.5, "unit": "µM"}
    ]},
    {"smiles": "CCN1CCN2Cc3c(c4cc(OC)c(OC)cc4c4cc(OC)ccc34)C[C@H]2C1", "note": "[Compound 8b, (S)-13-aza-13N-ethyl-cryptopleurine]", "values": [
      {"measurement": "melting point", "value": "83 to 85", "unit": "°C"},
      {"measurement": "GI50", "setting": "HCT-8; [10]", "value": 9.45, "unit": "µM"},
      {"measurement": "GI50", "setting": "A549; [6]", "value": 7.13, "unit": "µM"},
      {"measurement": "GI50", "setting": "DU145; [7]", "value": 10.5, "unit": "µM"},
      {"measurement": "GI50", "setting": "KB; [8]", "value": 8.24, "unit": "µM"}
    ]},
    {"smiles": "COC(=O)N1CCN2Cc3c(c4cc(OC)c(OC)cc4c4cc(OC)ccc34)C[C@H]2C1", "note": "[Compound 8c, (S)-13-aza-13N-methoxycarbonyl-cryptopleurine]", "values": [
      {"measurement": "melting point", "value": "99 to 101", "unit": "°C"},
      {"measurement": "GI50", "setting": "HCT-8; [10]", "value": 12.1, "unit": "µM"},
      {"measurement": "GI50", "setting": "A549; [6]", "value": 10.9, "unit": "µM"},
      {"measurement": "GI50", "setting": "DU145; [7]", "value": 12.2, "unit": "µM"},
      {"measurement": "GI50", "setting": "KB; [8]", "value": 11.3, "unit": "µM"}
    ]}
  ]
}
